Results: patent publication US20060167025A1, “Tricyclic amino alcohols, processes for synthesis of same and use of same as anti-inflammatory drugs” (priority 2004, published 2006)

Key:
[1] = biological target: T1, glucocorticoid receptor (GR) (Homo sapiens, UniProt P04150); test: Binding to recombinant glucocorticoid receptor, reference [3H]-dexamethasone; settings: cytosol preparations of Sf9 cells infected with recombinant baculoviruses coding for GR; [3H]-dexamethasone reference
T1 construct: made in house; host or cells: Sf9 cells infected with recombinant baculovirus (cytosol preparation)
T1 sequence (P04150 1-777): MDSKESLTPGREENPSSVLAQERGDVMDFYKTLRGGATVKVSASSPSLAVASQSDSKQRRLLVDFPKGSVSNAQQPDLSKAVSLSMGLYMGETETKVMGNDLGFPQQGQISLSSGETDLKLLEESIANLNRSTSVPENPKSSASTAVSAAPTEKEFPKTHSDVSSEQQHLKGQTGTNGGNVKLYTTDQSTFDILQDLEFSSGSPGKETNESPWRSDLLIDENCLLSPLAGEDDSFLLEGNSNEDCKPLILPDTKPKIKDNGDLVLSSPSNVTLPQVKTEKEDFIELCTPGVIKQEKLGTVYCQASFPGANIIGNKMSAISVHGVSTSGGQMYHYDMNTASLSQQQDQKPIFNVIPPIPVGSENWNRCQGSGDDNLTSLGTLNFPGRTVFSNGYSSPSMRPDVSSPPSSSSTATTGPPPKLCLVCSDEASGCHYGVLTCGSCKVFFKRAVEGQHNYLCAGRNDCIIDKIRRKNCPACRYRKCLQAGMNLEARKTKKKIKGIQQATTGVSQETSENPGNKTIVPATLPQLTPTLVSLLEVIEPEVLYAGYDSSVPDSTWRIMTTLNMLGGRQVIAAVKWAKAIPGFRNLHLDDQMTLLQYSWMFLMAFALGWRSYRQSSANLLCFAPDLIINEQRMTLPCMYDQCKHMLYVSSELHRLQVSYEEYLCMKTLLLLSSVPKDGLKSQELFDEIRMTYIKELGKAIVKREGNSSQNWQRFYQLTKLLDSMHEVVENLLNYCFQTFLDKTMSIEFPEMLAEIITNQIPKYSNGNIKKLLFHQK
Procedure: (§1) The binding of substances to the glucocorticoid receptor (GR) and other steroid hormone receptors (mineral corticoid receptor (MR), progesterone receptor (PR) and androgen receptor (AR)) is tested with the help of recombinant receptors. Cytosol preparations of Sf9 cells infected with recombinant baculoviruses that code for GR are used for binding tests. In comparison with the reference substance [^3H]-dexamethasone, these substances have a high affinity for GR. An IC50 (GR)=20 nM and IC50 (PR)>1 μM have been obtained for the compound from Example 2.

[2] = biological target: T2, progesterone receptor (PR) (Homo sapiens, UniProt P06401); test: Binding to recombinant progesterone receptor
T2 sequence (P06401 1-933): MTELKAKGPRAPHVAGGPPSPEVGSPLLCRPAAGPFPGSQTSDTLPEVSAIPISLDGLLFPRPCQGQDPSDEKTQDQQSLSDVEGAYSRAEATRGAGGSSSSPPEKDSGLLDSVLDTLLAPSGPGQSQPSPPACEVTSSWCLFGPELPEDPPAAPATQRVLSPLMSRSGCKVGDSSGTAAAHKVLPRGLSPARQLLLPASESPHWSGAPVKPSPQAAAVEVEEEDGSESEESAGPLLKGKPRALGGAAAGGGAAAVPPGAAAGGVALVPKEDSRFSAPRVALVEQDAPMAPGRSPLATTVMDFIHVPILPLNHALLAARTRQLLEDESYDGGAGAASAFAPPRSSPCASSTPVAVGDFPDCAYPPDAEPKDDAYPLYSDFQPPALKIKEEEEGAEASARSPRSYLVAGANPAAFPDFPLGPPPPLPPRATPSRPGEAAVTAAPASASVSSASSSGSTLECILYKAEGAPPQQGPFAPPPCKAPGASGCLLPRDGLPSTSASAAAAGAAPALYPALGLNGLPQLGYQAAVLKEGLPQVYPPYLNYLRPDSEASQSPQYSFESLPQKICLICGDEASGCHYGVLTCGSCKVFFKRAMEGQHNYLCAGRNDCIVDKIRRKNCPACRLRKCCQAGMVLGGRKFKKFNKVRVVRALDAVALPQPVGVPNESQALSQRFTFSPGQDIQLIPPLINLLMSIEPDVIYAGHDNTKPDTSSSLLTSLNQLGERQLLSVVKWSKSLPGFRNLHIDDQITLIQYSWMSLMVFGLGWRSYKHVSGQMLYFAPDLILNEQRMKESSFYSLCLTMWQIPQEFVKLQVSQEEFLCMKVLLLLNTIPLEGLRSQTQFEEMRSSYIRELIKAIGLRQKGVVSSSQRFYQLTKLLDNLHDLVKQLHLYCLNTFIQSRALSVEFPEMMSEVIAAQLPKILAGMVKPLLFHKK
Procedure: as §1

[3] = test system: secretion of cytokine IL-8 triggered by lipopolysaccharide (LPS) in the human monocyte cell line THP-1; test: Inhibition of LPS-triggered IL-8 secretion in THP-1 cells (ELISA); assay type: cell-based
Procedure: The inventive compounds of general formula (I) inhibit the secretion of cytokine IL-8 triggered by lipopolysaccharide (LPS) in the human monocyte cell line THP-1. The concentration of cytokines was determined in the supernatant using commercially available ELISA kits.

- IC50 [1]: 0.02 µM
- IC50 [2]: > 1 µM
- IC50 ([3]; Homo sapiens, LPS-stimulated THP-1, IL-8 in supernatant by ELISA, read-out: IC50 (IL8)): 0.037 µM
SMILES: Cc1ccc2c(NC3c4ccc(F)c5c4C(CCO5)CC3(O)C(F)(F)F)cccc2n1 (mixture of isomers) [Example 2, 9-Fluoro-6-[(2-methylquinolin-5-yl)amino]-5-(trifluoromethyl)-2,3,3a,4,5,6-hexahydrobenzo[de]chromen-5-ol]
- efficiency with respect to [3H]-dexamethasone as the standard ([3]; IL-8 inhibition in LPS-stimulated THP-1): 70%
